In the NIST ThermoML archive (doi:10.1021/je100952p):
Numbers after ± are expanded uncertainties.

Experiment: activity coefficient (dimensionless); of the first substance listed, at infinite dilution; xn = mol fraction of the nth substance listed
Settings: 101 kPa, Liquid, Chromatography, x1 = 0

Structure (SMILES)	activity coefficient (303.15 K)	activity coefficient (313.15 K)	activity coefficient (323.15 K)	activity coefficient (333.15 K)	activity coefficient (343.15 K)	activity coefficient (353.15 K)	activity coefficient (363.15 K)
c1ccccc1 [benzene] + CCCCCCCCCCn1cc[n+](C)c1.F[B-](F)(F)F	1.15 ± 0.07	1.14 ± 0.07	1.11 ± 0.07	1.1 ± 0.1	1.08 ± 0.06	1.07 ± 0.06	1.06 ± 0.06
CCCCCC [hexane] + CCCCCCCCCCn1cc[n+](C)c1.F[B-](F)(F)F	7.36 ± 0.48	7.16 ± 0.46	7.03 ± 0.45	6.94 ± 0.45	6.86 ± 0.44	6.81 ± 0.44	6.68 ± 0.43
Cc1ccccc1 [toluene] + CCCCCCCCCCn1cc[n+](C)c1.F[B-](F)(F)F	1.52 ± 0.09	1.49 ± 0.09	1.47 ± 0.09	1.43 ± 0.09	1.41 ± 0.09	1.4 ± 0.1	1.35 ± 0.08
CCCCCCC [heptane] + CCCCCCCCCCn1cc[n+](C)c1.F[B-](F)(F)F	8.01 ± 0.52	7.97 ± 0.52	7.95 ± 0.51	7.93 ± 0.51	7.91 ± 0.51	7.89 ± 0.51	7.88 ± 0.51
CC1CCCCC1 [methylcyclohexane] + CCCCCCCCCCn1cc[n+](C)c1.F[B-](F)(F)F	5.19 ± 0.34	5.23 ± 0.34	5.24 ± 0.34	5.28 ± 0.34	5.32 ± 0.34	5.36 ± 0.35	5.39 ± 0.35
CC(C)CC(C)(C)C [2,2,4-trimethylpentane] + CCCCCCCCCCn1cc[n+](C)c1.F[B-](F)(F)F	9.13 ± 0.59	9.11 ± 0.59	9.1 ± 0.6	9.08 ± 0.59	9.07 ± 0.59	9.07 ± 0.59	9.06 ± 0.59
CCCCC [pentane] + CCCCCCCCCCn1cc[n+](C)c1.F[B-](F)(F)F	6.88 ± 0.45	6.72 ± 0.43	6.53 ± 0.42	6.29 ± 0.41	6.12 ± 0.4	6.01 ± 0.39	5.93 ± 0.38
Cc1cccc(C)c1 [1,3-dimethylbenzene] + CCCCCCCCCCn1cc[n+](C)c1.F[B-](F)(F)F	2.03 ± 0.13	2.02 ± 0.13	1.97 ± 0.13	1.95 ± 0.13	1.94 ± 0.12	1.92 ± 0.12	1.91 ± 0.12
Cc1ccc(C)cc1 [1,4-dimethylbenzene] + CCCCCCCCCCn1cc[n+](C)c1.F[B-](F)(F)F	1.99 ± 0.13	1.96 ± 0.13	1.93 ± 0.12	1.92 ± 0.12	1.91 ± 0.12	1.88 ± 0.12	1.86 ± 0.12
Cc1ccccc1C [1,2-dimethylbenzene] + CCCCCCCCCCn1cc[n+](C)c1.F[B-](F)(F)F	1.79 ± 0.11	1.77 ± 0.11	1.75 ± 0.11	1.73 ± 0.11	1.72 ± 0.11	1.72 ± 0.11	1.71 ± 0.11
C=Cc1ccccc1 [styrene] + CCCCCCCCCCn1cc[n+](C)c1.F[B-](F)(F)F		1.25 ± 0.08	1.22 ± 0.07	1.2 ± 0.1	1.18 ± 0.07	1.16 ± 0.07	1.14 ± 0.07
CCCCCCCC [octane] + CCCCCCCCCCn1cc[n+](C)c1.F[B-](F)(F)F	9.3 ± 0.6	9.26 ± 0.6	9.21 ± 0.6	9.2 ± 0.6	9.17 ± 0.59	9.16 ± 0.59	9.13 ± 0.59
CCc1ccccc1 [ethylbenzene] + CCCCCCCCCCn1cc[n+](C)c1.F[B-](F)(F)F		2.02 ± 0.13	2.01 ± 0.13	1.99 ± 0.13	1.98 ± 0.13	1.97 ± 0.13	1.96 ± 0.13
CCCCCCCCC [nonane] + CCCCCCCCCCn1cc[n+](C)c1.F[B-](F)(F)F	10.7 ± 0.69	10.7 ± 0.69	10.7 ± 0.69	10.7 ± 0.69	10.7 ± 0.69	10.7 ± 0.69	10.6 ± 0.69
C1CCCCC1 [cyclohexane] + CCCCCCCCCCn1cc[n+](C)c1.F[B-](F)(F)F	4.42 ± 0.29	4.43 ± 0.29	4.43 ± 0.29	4.47 ± 0.29	4.5 ± 0.3	4.56 ± 0.29	4.69 ± 0.3
C1=CCCCC1 [cyclohexene] + CCCCCCCCCCn1cc[n+](C)c1.F[B-](F)(F)F	3.03 ± 0.2	3.01 ± 0.19	2.99 ± 0.19	2.97 ± 0.19	2.96 ± 0.19	2.96 ± 0.19	2.96 ± 0.19
